The numbers were not newly measured in patent US12042505B2, “Compositions and methods for treating dry eye” (priority 2021, dated 2024), which cites them from elsewhere.

The conditions of the data set: for side effects: background statement on marketed drug.

For `CC[C@@H]1C(=O)OC[C@@H]1Cc1cncn1C` [Pilocarpine], the side effects entry was “miosis, blurred vision, pupillary spasms; topically, it also results in burning and stinging”.
Take `CC1OC2(CS1)CN1CCC2CC1` (stereo not shown) [Cevimeline]: the side effects result was “bladder pain, nausea, vomiting, diarrhea, sweating, rash, headache, runny nose, drowsiness, hot flashes, blurred vision, difficulty sleeping”.
For `CC(C[N+](C)(C)C)OC(N)=O` (stereo not shown) [Bethanechol], the side effects entry was “dizziness, drowsiness, lightheadedness, headache, nausea, vomiting, abdominal cramps/pain, diarrhea, increased salivation or urination, headache, slow heart rate followed by fast heart rate, and sweating”. In addition, the hydrolysis by cholinesterase entry (background statement) is recorded as “not hydrolyzed by cholinesterase”.
As for `CN(C)C(=O)Oc1ccc[n+](C)c1` [Pyridostigmine], the side effects result is “dizziness, drowsiness, lightheadedness, headache, nausea, vomiting, abdominal cramps/pain, diarrhea, increased salivation or urination, headache, slow heart rate followed by fast heart rate, and sweating”.
As to `C[N+](C)(C)CCOC(N)=O` [Carbachol], the side effects result was “miosis that can diminish ocular focus”. Moreover, under “background statement”, the “absorption in the gastrointestinal tract” value was “not well absorbed in the gastrointestinal tract”.
